Each block holds one molecule with its values, some of them ahead of it.
Key:
[1] = target: T1, Mitogen-activated protein kinase 12 (Homo sapiens) (UniProt P53778); assay: Selectivity interaction (Kinase panel (Z-LYTE Assay)) EUB0001632a MAPK12; conditions: at 10 µM
T1 sequence (whole entry): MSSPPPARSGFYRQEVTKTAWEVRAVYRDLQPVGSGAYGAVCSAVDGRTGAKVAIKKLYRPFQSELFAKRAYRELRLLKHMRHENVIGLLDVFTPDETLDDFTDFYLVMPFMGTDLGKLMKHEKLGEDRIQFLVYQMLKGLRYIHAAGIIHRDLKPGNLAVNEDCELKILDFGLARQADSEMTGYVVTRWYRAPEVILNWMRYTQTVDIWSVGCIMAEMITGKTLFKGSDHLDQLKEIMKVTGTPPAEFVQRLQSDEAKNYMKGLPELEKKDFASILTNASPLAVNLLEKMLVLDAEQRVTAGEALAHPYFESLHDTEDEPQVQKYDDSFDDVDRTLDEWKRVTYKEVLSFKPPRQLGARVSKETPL

[2] = target: Gastrin/cholecystokinin type B receptor (Homo sapiens, UniProt P32239); assay: Selectivity interaction (Cholecystokinin B receptor binding assay, human recombinant ) EUB0000877a CCKBR
[3] = target: Serine/threonine-protein kinase PAK 1 (Homo sapiens) (UniProt Q13153); assay: Selectivity interaction (KinomeScan (DiscoverX)) EUB0000607a PAK1; conditions: at 10 µM
[4] = target: Ephrin type-A receptor 5 (Homo sapiens) (UniProt P54756); assay: Selectivity interaction (KinomeScan (DiscoverX)) EUB0000607a EPHA5; conditions: at 10 µM
[5] = target: 5-hydroxytryptamine receptor 2A (Homo sapiens, UniProt P28223); assay: Selectivity interaction (Panel of kinases, GPCRs, ion channels and transporters (enzymatic assay)) EUB0000266bCl HTR2A
[6] = target: T2, Histone-arginine methyltransferase CARM1 (Homo sapiens) (UniProt Q86X55); assay: Selectivity interaction (Methyltransferase screen (Scintillation proximity assays)) EUB0000255b CARM1
T2 sequence (whole entry): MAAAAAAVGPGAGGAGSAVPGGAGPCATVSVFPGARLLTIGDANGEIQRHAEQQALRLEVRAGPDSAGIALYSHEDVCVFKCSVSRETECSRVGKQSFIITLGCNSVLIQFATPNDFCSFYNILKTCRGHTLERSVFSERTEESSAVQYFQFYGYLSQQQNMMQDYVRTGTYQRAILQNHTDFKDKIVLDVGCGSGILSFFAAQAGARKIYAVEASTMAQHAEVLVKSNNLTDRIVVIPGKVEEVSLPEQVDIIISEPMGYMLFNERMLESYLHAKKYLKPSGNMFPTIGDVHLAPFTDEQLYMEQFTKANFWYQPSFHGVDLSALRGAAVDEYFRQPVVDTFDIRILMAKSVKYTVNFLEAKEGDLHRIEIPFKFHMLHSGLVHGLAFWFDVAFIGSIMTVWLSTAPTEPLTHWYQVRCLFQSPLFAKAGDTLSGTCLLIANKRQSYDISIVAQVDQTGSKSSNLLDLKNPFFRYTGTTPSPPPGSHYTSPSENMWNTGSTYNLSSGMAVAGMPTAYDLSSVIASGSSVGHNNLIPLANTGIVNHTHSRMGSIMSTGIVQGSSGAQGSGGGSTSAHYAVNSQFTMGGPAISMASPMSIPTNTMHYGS

[7] = target: Activated CDC42 kinase 1 (Homo sapiens, UniProt Q07912); assay: Selectivity interaction (KinomeScan (DiscoverX)) EUB0000655a TNK2; conditions: at 10 µM
[8] = target: T3, Cyclin-dependent kinase 11A (Homo sapiens) (UniProt Q9UQ88); assay: Selectivity interaction (KinomeScan (DiscoverX)) EUB0001079a CDK11A; conditions: at 1 µM
T3 sequence (whole entry): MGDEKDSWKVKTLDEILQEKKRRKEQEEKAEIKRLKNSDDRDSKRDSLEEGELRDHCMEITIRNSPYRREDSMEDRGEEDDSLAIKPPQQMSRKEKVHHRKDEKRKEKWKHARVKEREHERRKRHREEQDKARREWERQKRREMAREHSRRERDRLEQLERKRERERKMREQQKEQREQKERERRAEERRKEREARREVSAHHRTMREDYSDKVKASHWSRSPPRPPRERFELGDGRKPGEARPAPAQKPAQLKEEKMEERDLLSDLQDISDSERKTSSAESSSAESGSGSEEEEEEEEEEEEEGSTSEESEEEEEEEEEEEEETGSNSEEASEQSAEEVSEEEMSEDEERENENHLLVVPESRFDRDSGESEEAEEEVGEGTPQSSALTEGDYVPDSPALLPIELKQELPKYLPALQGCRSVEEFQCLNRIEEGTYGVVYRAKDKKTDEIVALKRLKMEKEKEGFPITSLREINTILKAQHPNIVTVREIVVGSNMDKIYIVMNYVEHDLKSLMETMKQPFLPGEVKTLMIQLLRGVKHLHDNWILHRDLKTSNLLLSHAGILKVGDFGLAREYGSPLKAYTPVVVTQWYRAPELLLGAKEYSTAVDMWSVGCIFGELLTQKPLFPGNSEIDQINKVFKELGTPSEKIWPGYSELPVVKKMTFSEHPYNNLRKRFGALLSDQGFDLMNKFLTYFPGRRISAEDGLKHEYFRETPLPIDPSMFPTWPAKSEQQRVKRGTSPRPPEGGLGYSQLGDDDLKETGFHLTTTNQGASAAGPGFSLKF

[9] = target: T4, Serine/threonine-protein kinase Sgk1 (Homo sapiens) (UniProt O00141); assay: Selectivity interaction (KinomeScan (DiscoverX)) EUB0001079a SGK1; conditions: at 1 µM
T4 sequence (whole entry): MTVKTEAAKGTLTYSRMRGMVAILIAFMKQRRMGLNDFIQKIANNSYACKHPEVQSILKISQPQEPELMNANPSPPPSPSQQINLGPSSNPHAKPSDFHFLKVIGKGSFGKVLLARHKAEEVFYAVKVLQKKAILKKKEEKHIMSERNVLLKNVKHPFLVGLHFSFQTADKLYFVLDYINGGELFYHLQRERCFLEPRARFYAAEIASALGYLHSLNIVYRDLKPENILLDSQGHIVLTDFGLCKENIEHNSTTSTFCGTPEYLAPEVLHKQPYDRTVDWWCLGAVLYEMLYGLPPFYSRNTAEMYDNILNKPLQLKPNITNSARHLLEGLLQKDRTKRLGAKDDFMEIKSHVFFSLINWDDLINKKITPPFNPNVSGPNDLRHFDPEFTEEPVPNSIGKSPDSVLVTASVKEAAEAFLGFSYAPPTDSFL

Serine/threonine-protein kinase PAK 1 (Homo sapiens), sequence (Q13153 whole entry): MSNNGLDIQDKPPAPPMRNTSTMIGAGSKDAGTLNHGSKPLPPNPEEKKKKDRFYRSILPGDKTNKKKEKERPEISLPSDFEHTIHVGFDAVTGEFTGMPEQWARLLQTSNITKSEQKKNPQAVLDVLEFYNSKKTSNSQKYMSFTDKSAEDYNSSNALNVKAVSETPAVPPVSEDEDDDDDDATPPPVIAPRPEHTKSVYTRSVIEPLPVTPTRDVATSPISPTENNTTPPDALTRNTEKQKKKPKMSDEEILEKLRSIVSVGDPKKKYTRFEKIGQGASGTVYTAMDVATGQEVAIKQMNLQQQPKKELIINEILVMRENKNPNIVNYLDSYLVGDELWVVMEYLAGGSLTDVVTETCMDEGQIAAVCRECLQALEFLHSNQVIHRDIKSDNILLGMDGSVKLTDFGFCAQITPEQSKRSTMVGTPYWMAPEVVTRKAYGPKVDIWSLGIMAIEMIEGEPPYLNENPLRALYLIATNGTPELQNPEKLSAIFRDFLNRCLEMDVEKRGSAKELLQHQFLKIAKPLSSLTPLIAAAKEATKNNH
Gastrin/cholecystokinin type B receptor, sequence (P32239 whole entry): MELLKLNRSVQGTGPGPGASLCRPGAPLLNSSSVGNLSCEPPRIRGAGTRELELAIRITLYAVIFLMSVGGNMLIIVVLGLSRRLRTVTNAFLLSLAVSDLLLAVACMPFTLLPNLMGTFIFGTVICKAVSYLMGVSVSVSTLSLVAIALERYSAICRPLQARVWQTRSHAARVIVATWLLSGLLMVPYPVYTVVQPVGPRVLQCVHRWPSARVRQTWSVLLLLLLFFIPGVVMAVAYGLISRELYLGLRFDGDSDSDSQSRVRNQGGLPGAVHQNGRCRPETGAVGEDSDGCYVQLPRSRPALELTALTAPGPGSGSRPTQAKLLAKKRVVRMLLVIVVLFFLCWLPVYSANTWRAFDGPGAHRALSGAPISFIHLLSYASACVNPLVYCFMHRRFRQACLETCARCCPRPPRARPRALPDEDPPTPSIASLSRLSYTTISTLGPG
Ephrin type-A receptor 5 (Homo sapiens), sequence (P54756 whole entry): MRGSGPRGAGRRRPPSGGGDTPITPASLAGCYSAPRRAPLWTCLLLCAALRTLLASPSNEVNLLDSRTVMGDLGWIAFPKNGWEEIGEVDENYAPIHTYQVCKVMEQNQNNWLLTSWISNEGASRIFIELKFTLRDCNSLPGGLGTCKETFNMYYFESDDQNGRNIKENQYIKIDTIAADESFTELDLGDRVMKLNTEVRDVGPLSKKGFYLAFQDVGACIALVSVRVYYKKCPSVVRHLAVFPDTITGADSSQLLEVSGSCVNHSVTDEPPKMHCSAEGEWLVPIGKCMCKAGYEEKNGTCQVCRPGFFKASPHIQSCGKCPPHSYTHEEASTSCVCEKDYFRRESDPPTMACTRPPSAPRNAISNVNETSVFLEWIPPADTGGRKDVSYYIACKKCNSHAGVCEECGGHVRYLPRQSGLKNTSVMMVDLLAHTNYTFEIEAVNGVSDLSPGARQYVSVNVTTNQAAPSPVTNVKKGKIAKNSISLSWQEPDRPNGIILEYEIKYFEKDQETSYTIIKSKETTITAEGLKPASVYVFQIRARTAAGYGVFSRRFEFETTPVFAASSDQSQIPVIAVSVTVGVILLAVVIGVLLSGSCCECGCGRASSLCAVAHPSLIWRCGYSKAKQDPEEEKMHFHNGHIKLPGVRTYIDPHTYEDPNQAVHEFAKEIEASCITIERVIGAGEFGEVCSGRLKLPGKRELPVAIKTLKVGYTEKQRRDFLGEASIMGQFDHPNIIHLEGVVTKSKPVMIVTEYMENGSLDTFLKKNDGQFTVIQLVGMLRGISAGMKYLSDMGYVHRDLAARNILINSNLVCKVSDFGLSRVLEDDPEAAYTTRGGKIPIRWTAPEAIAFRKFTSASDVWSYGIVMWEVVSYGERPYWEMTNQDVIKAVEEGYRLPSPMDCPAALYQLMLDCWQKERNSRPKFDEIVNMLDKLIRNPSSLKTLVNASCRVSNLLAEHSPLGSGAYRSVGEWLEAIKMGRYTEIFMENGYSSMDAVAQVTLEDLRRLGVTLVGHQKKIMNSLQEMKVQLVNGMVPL
Activated CDC42 kinase 1, sequence (Q07912 whole entry, looked up): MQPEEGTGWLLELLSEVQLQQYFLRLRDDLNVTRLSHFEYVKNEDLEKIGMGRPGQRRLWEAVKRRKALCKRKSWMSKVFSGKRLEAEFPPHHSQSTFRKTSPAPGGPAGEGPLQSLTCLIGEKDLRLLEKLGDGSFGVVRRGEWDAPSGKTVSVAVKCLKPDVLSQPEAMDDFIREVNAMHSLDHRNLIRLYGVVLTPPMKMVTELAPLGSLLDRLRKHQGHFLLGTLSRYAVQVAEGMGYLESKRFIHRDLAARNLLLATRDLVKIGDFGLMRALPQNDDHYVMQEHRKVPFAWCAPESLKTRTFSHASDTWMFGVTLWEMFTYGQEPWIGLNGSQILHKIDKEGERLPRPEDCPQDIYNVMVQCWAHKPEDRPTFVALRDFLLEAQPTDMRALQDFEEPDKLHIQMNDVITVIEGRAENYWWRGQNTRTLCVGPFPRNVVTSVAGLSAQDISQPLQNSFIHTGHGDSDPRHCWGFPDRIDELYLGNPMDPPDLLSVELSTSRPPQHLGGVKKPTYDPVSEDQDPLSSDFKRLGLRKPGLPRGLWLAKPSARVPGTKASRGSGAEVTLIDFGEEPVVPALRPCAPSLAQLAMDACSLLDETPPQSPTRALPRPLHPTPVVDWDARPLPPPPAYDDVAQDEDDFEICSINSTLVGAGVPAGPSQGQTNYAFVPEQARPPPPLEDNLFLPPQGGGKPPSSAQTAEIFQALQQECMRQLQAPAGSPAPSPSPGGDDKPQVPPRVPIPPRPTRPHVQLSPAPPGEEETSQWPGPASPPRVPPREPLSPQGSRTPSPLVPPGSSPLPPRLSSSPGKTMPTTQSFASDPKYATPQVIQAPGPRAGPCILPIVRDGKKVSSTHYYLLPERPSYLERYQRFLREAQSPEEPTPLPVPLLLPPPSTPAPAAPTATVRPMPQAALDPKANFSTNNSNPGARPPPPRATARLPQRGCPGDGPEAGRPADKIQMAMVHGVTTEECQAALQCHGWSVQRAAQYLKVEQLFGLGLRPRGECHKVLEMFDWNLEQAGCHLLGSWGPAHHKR
5-hydroxytryptamine receptor 2A, sequence (P28223 whole entry): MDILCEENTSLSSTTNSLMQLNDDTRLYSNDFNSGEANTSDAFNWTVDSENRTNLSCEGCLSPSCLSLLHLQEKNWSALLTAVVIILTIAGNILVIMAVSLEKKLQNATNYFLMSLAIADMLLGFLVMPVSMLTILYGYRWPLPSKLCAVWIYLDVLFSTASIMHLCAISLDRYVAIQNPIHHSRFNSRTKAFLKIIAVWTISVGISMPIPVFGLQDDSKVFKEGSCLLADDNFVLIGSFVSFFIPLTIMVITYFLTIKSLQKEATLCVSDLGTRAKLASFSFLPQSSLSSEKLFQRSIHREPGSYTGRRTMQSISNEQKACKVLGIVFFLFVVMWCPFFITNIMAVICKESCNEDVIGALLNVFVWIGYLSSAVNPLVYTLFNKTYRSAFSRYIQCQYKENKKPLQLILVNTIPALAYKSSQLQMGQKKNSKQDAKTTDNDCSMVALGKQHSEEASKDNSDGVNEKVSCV

% of control [1]: 1.47%
SMILES: Cn1cc(-n2cnc3c(NCc4nc5cc(Cl)c(Cl)cc5[nH]4)nc(N4CCOCC4)nc32)cn1

IC50 [2]: > 30 µM
SMILES: CCC(=O)N1CC[C@H](Nc2ncnc3c2CN(c2cnc(OC)c(C(F)(F)F)c2)CC3)C1 [LENIOLISIB]

SMILES: CNC(=O)Nc1ccc(-c2nc(N3CC4CCC(C3)O4)c3cnn(C4CCC5(CC4)OCCO5)c3n2)cc1
% of control [3]: 100%
% of control [4]: 92%

pXC50 [5]: 5.3 M
SMILES: CCn1c(-c2nc3cc(C(=O)N4CCCC(N)C4)ccc3n2C)cc2ccccc21 (stereo not given)

SMILES: COCCN1CCC(c2cc(CN(C)C(=O)c3cccc(Oc4ccccc4)c3)ccn2)CC1
% activity ([6]; at 1 µM): < 1%
% activity ([6]; at 10 µM): 23%

SMILES: CN(C)CCOc1ccc(-c2nc(-c3ccncc3)c(-c3ccc4c(c3)CC/C4=N\O)[nH]2)cc1
% of control [7]: 100%

SMILES: Nc1cnc(N2CCc3cc(S(=O)(=O)Nc4c(F)cc(Cl)cc4F)cc(N4CCCC4=O)c32)nc1 [TP-020n]
% of control [8]: 89%
% of control [9]: 100%

— ChEMBL document CHEMBL5465560, “Selectivity Literature for EUbOPEN Chemogenomic Library” (2024)
